This experiment addresses T1, Glutathione-S-transferase tagged Bir3 domain of cIAP1 (L250-G350) (Homo sapiens, UniProt Q13490).
T1 construct: The cIAP1 Bir3 domain construct (aa L250-G350) was prepared from a full length cIAP1 clone; made in house; host or cells: Escherichia coli BL21 (DE3), pGEX-6P-1 vector
Briefly: Fluorescence polarization assay, cIAP1 Bir3 domain. The format is binding. Particulars: 20 nM cIAP1-Bir3, 2.5 nM AbuRPF-K-5FAM tracer, 20-minute incubation. How it is done: Materials: The cIAP1 Bir3 domain construct (aa L250-G350) was prepared from a full length cIAP1 clone (NCBI Reference Sequence: NM_001166.3). PCR was used to generate the Bir3 fragment which was inserted into a pGEX-6P-1 vector (GE LifeSciences) as a BamHI/XhoI fragment. Protein was prepared in Escherichia coli BL21 (DE3) grown at 37° C. containing ampicillin to an OD600 of 0.6. Protein expression was induced by 1 mM isopropyl β-D-1-thiogalactopyranoside (IPTG) for 3.75 hours.
Cells were lysed by sonication in buffer containing 100 mM Tris (pH 7.5), 150 mM NaCl, 5 mm dithiothreitol (DTT), 50 μM zinc acetate (ZnAc), ethylenediamine tetraacetic acid (EDTA) free Complete protease inhibitors (Roche Applied Science), 100 μg/mL lysozyme, and 0.5% Triton-X100. DNAse was added to the mixture after sonication. Proteins were purified from the soluble fraction using Glutathione Sepharose 4B resin (GE Lifesciences) followed by desalting on a PD-10 column (GE Lifesciences). This was followed by purification over an SEC 200 resin (GE Lifesciences). Final storage buffer consisted of 25 mM Tris, pH 7.5, 200 mM NaCl, 5 mM DTT, 50 uM ZnAc, 10% glycerol.
The fluorescence polarization assay was developed using Glutathione-S-transferase tagged Bir3 domain of cIAP1 (L250-G350). The tracer used was a synthetic peptide conjugated to 5-carboxyfluorescein (AbuRPF-K-5FAM).
Methods: Dilutions of cIAP1-Bir3 (20 nM) were added to 2.5 nM of fluorescent peptide tracer in assay buffer (final concentrations of 20 mM HEPES, pH 7.5, 1 mM DTT, 0.005% Tween-20 and 50 mM NaCl) containing various dilutions of binding inhibitors. Samples were read by a Tecan Ultra Evolution (Tecan US Inc, Durham N.C.) after a 20-minute incubation.
Fluorescence polarization values were plotted as a function of the antagonist concentration and the IC50 values were determined.
On the technique in general: Polarisation of emitted light reports the rotation of a fluorescent probe.

We go through four molecules from US20100317593A1, “2,3-DIHYDRO-1H-INDENE COMPOUNDS” (ASTRAZENECA AB, priority 2009, published 2010).

Each structure is given as a SMILES string.

T1 sequence (Q13490 250-350): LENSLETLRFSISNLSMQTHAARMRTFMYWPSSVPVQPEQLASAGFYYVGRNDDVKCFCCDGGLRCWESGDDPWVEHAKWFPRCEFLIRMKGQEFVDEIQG

A word on the IC50: it is the point on the concentration scale where inhibition reaches its midpoint. A low value points to greater potency. As for `CN[C@@H](C)C(=O)N[C@H](C(=O)N1CCC[C@H]1C(=O)N[C@H]1c2ccccc2C[C@H]1OCC#CC#CCO[C@@H]1Cc2ccccc2[C@@H]1NC(=O)[C@@H]1CCCN1C(=O)[C@@H](NC(=O)[C@H](C)NC)C1CCCCC1)C1CCCCC1` [Example 1, (S,S,2S,2′S)-N,N′-((1S,1′S,2R,2′R)-2,2′-(hexa-2,4-diyne-1,6-diylbis(oxy))bis(2,3-dihydro-1H-indene-2,1-diyl))bis(1-((S)-2-cyclohexyl-2-((S)-2-(methylamino)propanamido)acetyl)pyrrolidine-2-carboxamide)], it took 12 nM to reach half-maximal inhibition (IC50).

`C#CCO[C@@H]1Cc2ccccc2[C@@H]1NC(=O)[C@@H]1CCCN1C(=O)[C@@H](NC(=O)[C@H](C)NC)C1CCCCC1` [Example 2, (S)-1-((S)-2-cyclohexyl-2-((S)-2-(methylamino)propanamido)acetyl)-N-((1S,2R)-2-(prop-2-ynyloxy)-2,3-dihydro-1H-inden-1-yl)pyrrolidine-2-carboxamide]: it took 15 nM to reach half-maximal inhibition (IC50).

In turn, `CN[C@@H](C)C(=O)N[C@H](C(=O)N1CCC[C@H]1C(=O)N[C@H]1c2ccccc2C[C@H]1OCCCCCCO[C@@H]1Cc2ccccc2[C@@H]1NC(=O)[C@@H]1CCCN1C(=O)[C@@H](NC(=O)[C@H](C)NC)C1CCCCC1)C1CCCCC1` [Example 3, (S,S,2S,2′S)-N,N′-((1S,1′S,2R,2′R)-2,2′-(Hexane-1,6-diylbis(oxy))bis(2,3-dihydro-1H-indene-2,1-diyl))bis(1-((S)-2-cyclohexyl-2-((S)-2-(methylamino)propanamido)acetyl)pyrrolidine-2-carboxamide)] had an IC50 of 13 nM.

In turn, `CN[C@@H](C)C(=O)N[C@H](C(=O)N1CCC[C@H]1C(=O)N[C@H]1c2ccccc2C[C@@H]1OCC#CC#CCO[C@H]1Cc2ccccc2[C@@H]1NC(=O)[C@@H]1CCCN1C(=O)[C@@H](NC(=O)[C@H](C)NC)C1CCCCC1)C1CCCCC1` [Example 4, (S,S,2S,2′S)-N,N′-((1S,1′S,2S,2′S)-2,2′-(hexa-2,4-diyne-1,6-diylbis(oxy))bis(2,3-dihydro-1H-indene-2,1-diyl))bis(1-((S)-2-cyclohexyl-2-((S)-2-(methylamino)propanamido)acetyl)pyrrolidine-2-carboxamide)] displayed an IC50 of 42.9 nM.
